Laboratory results reported in patent US5135849A, “In-vitro methods for identifying compositions which are agonists and antagonists of androgens” (priority 1989, dated 1992).
Like-named read-outs stand apart in the source and are kept apart here.

Key:
LNCaP cells [1] = experiment: Phase 1 protocol to identify androgen agonist properties (LNCaP cell proliferation in CDHS medium); type: cell-based, human; settings: for CHARACTERISTICS: classification from Phase 1 and Phase 2 protocols; for PHASE 1 CELL COUNT: final cell number per well at the optimal test conc.; for PHASE 1 CELL COUNT / OPTIMAL TEST CONC. (Phase 1) / cell yields compared with DHT alone, in words: 10% CDHS; for agonistic / proliferative activity, in words: Phase 1 protocol, CDHS-supplemented media; for RELATIVE PROLIFERATIVE POTENCY: Table II, 5α-DHT = 1.0, 5 × 10^4 cell inoculum grown in CDHS for 8 days; for cell yields compared with DHT alone, in words: 3×10^-8 M
From the text: This protocol measures the potential agonistic properties of the substance under test. All manipulations are to be carried out under sterile conditions using disposable plastic tissue culture multiwell plates with all manipulations preferrably being performed in a tissue culture hood.
1. The cell line of choice is the LNCaP-FGC cell culture, an androgen-sensitive prostate tumor cell line. The LNaP cell line is routinely grown in 5% fetal bovine serum--supplemented Dulbecco's modified Eagle minimal essential medium (hereinafter "5% FBS/DME"), at 37° C. in a 95% air--5% CO2 atmosphere.
2. The cultured cells growing in 5% FBS/DME are harvested by treatment with trypsin (1:250)--EDTA (0.2%). The cells are detached by brief exposure to trypsin for about two minutes. To avoid excessive proteolysis, the reaction is quenched by addition of equal volumes of 5% FBS/DME. The resulting cell suspension is collected into a sterile centrifuge tube and resuspended by pipetting gently. The aliquots of this cell suspension thus obtained are dispersed by means of a Skatron dispenser into individual wells containing the seedling medium (1 ml of 5% FBS/DME per well) of a multiwell plate. Each final prepared suspension preferably contains 50,000 cells in a volume of 1.0 ml. It is desirable that the number of cells be counted and verified by means of a Coulter Counter (Coulter Electronics, Hialeah, FL).
The number of wells in each plate will correspond to the number of concentrations per test substances to be evaluated and thus is merely a question of choice or convenience to the user. Into each well, 25 microliter (hereinafter "ul") aliquots of the prepared cell suspension are added using a 1.0 ml syringe fitted with a 19 gauge needle attached to a repetitive Dunn pipetter (Skatron Dispenser). The microtiter plate is then gently shaken to avoid unequal cell distribution within each individual well. The seeded cells are then allowed to attach to the plastic surface of the well proper over a period of 24-72 hours' duration after which the fluid is changed to the experimental maintaining medium.
3 At the time of test, all the seeded cells in each well of the multiwell plate receive 10% heat inactivated--charcoal-dextran human stripped serum (CDHS) in DME at a volume of 0.9 ml per well. Although higher concentrations of CDHS may be utilized up to and including 40% concentrations, the 10% concentration is most preferred.
5. To the other prepared (seeded) wells, 100 ul of the test substance to be evaluated is added as a 10X stock solution to achieve final concentrations ranging from 10^-5 M to at least 10^-12 M. The substance under test is preferably prepared as a stock solution in ethanol, most preferrably as a 10^-3 M solution. All dilutions from the stock preparation are made using DME. The ethanol concentration in the culture medium should be kept below […] by volume. This preparative technique and precaution avoids the need to filter the various volumes of test substance to achieve sterility. This is particularly valuable because steroidal compositions are known to become adsorbed to the commercially obtained filter membranes used for sterilization. The addition of the test substance in appropriate concentrations to the cultured cells and the maintaining medium forms a series of individual reaction mixtures, each of which is varied only by the concentration of the test substance present in the well.
6. After the series of individual reaction mixtures are formed, all of the cultured cells under test in each well of the microtiter plate are incubated at 37° C. preferably in an atmosphere of 5% CO2 /95% air under saturating humidity. During this incubation time, it is desired and preferred that the cultured cells employed in the test be maintained in an atmosphere most advantageous for survival and growth of that cell line. The incubation period preferably is in the range of from 5 to 7 days' duration.

LNCaP cells [2] = experiment: Phase 2 protocol for androgen antagonistic properties (LNCaP proliferation with 3×10^-10 M 5α-DHT plus test substance); settings: for antagonistic activity, in words: Phase 2 protocol
[3] = tested on: 3H-E2 binding in LNCaP cells; experiment: Competition with 3H-E2 binding in LNCaP cells; design: species or system human
Description: (§1) Steroid receptors measurement: The presence of intracellular sex steroid binding proteins was investigated in whole cell extracts as well as in intact cells. Cytosolic and nuclear extracts were obtained after centrifugation (105,000 g, 45 min.) of a sonicated cellular suspension in TKE buffer (10 mM Tris, 500 mM KCl, 0.5 mM EDTA, pH 7.4). Aliquots of this extract were incubated for 18 hours at 4° C. with increasing concentrations (2×10^- M to 2×10^-8 M) of labelled steroids, with and without a 200-fold excess of the corresponding unlabelled steroid. Bound and free fractions were separated by dextran-coated charcoal adsorption. Intact cells grown in monolayer culture were assayed for specific steroid binding [Olea-Serrano et al., Eur. J. Cancer Clin. Oncol. 21:965-973 (1983)]. Briefly, the cells were incubated in 12-well plates during 50 minutes at 37° C. in DME containing the labelled steroid with and without excess of cold competitor. The range of concentrations used was the same as that in the cytosolic-nuclear extract assay. […] The intracellular radioactivity was extracted with ethanol after ice-cold PBS washing. In both types of experiments, Scatchard analysis of the saturation data was used to quantify the maximal binding capacity (Bmax) and the affinity parameters (dissociation constant, Kd) using the SCAFIT program [Munson et al., Anal. Biochem. 107:220-239 (1980)].

androgen receptor = molecular target: T1, androgen receptor (Homo sapiens, UniProt P10275, T878A); experiment: Competition for androgen receptors with 3H-testosterone in LNCaP cytosol-nuclear extracts (RBA); type: binding; settings: for RBA (relative binding affinity to the androgen receptor): Table II, 5α-DHT = 100, 6×10^-9 M 3H-testosterone
T1 construct: the presence of specific androgen receptors in LNCaP cells; endogenous in cells; extract or intact cells for the saturation analysis
T1 sequence (P10275 whole entry T878A): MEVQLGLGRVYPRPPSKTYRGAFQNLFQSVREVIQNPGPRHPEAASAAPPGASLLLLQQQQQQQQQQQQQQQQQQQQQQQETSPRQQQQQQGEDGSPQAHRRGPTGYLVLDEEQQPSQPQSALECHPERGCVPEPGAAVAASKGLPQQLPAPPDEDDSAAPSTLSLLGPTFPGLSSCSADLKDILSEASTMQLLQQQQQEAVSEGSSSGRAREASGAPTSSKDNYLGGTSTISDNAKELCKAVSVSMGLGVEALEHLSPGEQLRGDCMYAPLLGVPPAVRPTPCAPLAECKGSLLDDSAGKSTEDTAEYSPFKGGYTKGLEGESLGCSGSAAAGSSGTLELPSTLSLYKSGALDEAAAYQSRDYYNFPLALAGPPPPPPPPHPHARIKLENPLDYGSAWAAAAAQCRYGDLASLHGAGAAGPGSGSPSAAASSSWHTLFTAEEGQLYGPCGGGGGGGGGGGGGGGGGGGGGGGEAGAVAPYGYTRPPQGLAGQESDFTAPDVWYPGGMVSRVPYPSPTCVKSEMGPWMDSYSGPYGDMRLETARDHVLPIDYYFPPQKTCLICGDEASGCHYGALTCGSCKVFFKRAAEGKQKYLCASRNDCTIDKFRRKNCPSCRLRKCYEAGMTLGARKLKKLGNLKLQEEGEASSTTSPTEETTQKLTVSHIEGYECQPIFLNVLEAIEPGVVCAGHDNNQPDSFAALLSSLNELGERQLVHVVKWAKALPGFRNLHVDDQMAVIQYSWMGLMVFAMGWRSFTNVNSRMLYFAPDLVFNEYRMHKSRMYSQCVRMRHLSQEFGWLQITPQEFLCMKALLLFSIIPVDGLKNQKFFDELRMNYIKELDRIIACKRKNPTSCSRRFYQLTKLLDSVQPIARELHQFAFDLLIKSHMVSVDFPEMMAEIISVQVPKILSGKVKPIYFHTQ
Description: as §1
Cytosol-nuclear extracts were used to study competition for androgen receptors. […] The relative binding affinity (RBA) was calculated from the equation: […]

[4] = with 3×10^-10 M 5α-DHT, 10% CDHS

| Molecule | CHARACTERISTICS (LNCaP cells [1]) | PHASE 1 CELL COUNT (LNCaP cells [1]) | antagonistic activity, in words (LNCaP cells [2]) | further results |
| --- | --- | --- | --- | --- |
| C[C@]12CCC(=O)C[C@@H]1CC[C@@H]1[C@@H]2CC[C@]2(C)[C@@H](O)CC[C@@H]12 [5α-DHT, 5α-dihydrotestosterone] | full agonist | 2.5 × 10^5 |  |  |
| CC(=O)O[C@]1(C(C)=O)CC[C@H]2[C@@H]3C[C@H](C)C4=CC(=O)CC[C@]4(C)[C@H]3CC[C@@]21C [medroxy progesterone, medroxyprogesterone acetate] | full agonist | 4.0 × 10^5 | absence of antagonistic effects | OPTIMAL TEST CONC. (Phase II) (LNCaP cells [2]): 3 µM; PHASE II CELL COUNT (LNCaP cells [2]): 4.0 × 10^5 |
| C[C@@H]1CC2=CC(=O)CC[C@@H]2[C@H]2CC[C@@]3(C)[C@@H](CC[C@]3(C)O)[C@@H]21 [mibolerone, 7α,17α-dimethyl-19-nortestosterone] | full agonist | 2.5 × 10^5 |  |  |
| CC/C(=C(/CC)c1ccc(O)cc1)c1ccc(O)cc1 [DES, diethylstilbestrol] | full antagonist | 5 × 10^4 |  | agonistic / proliferative activity, in words (LNCaP cells [1]): no agonistic activity at all; competition with 3H-E2 binding, in words [3]: did not compete |
| C[C@]12CC[C@@H]3c4ccc(O)cc4CC[C@H]3[C@@H]1CCC2=O [Estrone, estrone] |  |  |  | RBA (relative binding affinity to the androgen receptor) (androgen receptor): 0.1 |
| CCC(=O)C1(C)CCC2C3CCC4=CC(=O)CCC4=C3CCC21C (stereo not drawn) [R5020, 17βmethyl-,21-methyl-19-nor-pregna-4,9-diene-3,10-dione] | full agonists | 4.0 × 10^5 | no antagonistic activity | agonistic / proliferative activity, in words (LNCaP cells [1]): effective and potent androgen agonists; RELATIVE PROLIFERATIVE POTENCY (LNCaP cells [1]): 0.01; RBA (relative binding affinity to the androgen receptor) (androgen receptor): 11 |
| C[C@]12CCC(=O)C=C1CC[C@@H]1[C@@H]2[C@@H](O)C[C@@]2(C)[C@H]1CC[C@]2(O)C(=O)CO [hydrocortisone] | quiescent | 5 × 10^4 |  |  |
| CC(=O)[C@H]1CC[C@H]2[C@@H]3CCC4=CC(=O)CC[C@]4(C)[C@H]3CC[C@]12C [progesterone] | full agonists | 4 × 10^5 | no antagonistic activity | agonistic / proliferative activity, in words (LNCaP cells [1]): effective and potent androgen agonists |
| C[C@]12CC[C@@H](O)C[C@@H]1CC[C@@H]1[C@@H]2CC[C@]2(C)[C@@H](O)CC[C@@H]12 [3α-diol, 5α-androstene, 3α,17β-diol] | full agonist | 2.5 × 10^5 |  |  |
| insulin: Insulin (Eli Lilly Company) | quiescent | 5 × 10^4 |  | OPTIMAL TEST CONC. (Phase 1) (LNCaP cells [1]): 100 ng/mL; OPTIMAL TEST CONC. (Phase II) (LNCaP cells [2]; [4]): 100 ng/mL |
| CC(C)(O)C(=O)Nc1ccc([N+](=O)[O-])c(C(F)(F)F)c1 [hydroxyflutamide] | full agonist | 3.9 × 10^5 | absence of antagonistic effects | cell yields compared with DHT alone, in words (LNCaP cells [1]): increased cell yields at values consistently above those obtained with DHT alone; RPP (relative proliferation potency) (LNCaP cells [1]; Table III, Testosterone = 1, 10^5 cell inoculum grown in CDHS for 7 days): 0.01; RBA (relative binding affinity to the androgen receptor extracted from LNCaP) (androgen receptor; Table III, Testosterone = 1): 0.004 |
| CC1(C)NC(=O)N(c2ccc([N+](=O)[O-])c(C(F)(F)F)c2)C1=O [anandron, 5,5-dimethyl-3-(4-nitro-3-(trifluoromethyl)-phenyl)-2,4-imidasolidinedione] | full agonist | 4.0 × 10^5 |  | cell yields compared with DHT alone, in words (LNCaP cells [1]): increased cell yields at values consistently above those obtained with DHT alone |
| C[C@]12C[C@H](CCl)[C@@H]3c4ccc(O)cc4CC[C@H]3[C@@H]1CC[C@@H]2O [Org 4333, 11β-chloromethyl estradiol] | full agonists | 4.0 × 10^5 | no antagonistic activity | RELATIVE PROLIFERATIVE POTENCY (LNCaP cells [1]): 0.01; RBA (relative binding affinity to the androgen receptor) (androgen receptor): 1.2 |
| CC(=O)[C@H]1CC[C@H]2[C@@H]3CC=C4C[C@@H](O)CC[C@]4(C)[C@H]3CC[C@]12C [pregnenolone] | full agonist | 3.9 × 10^5 |  | proliferative potency (LNCaP cells [1]; compared with 5α-DHT values): 1% |
| CC(=O)O[C@]1(C(C)=O)CC[C@H]2[C@@H]3C=C(Cl)C4=CC(=O)[C@@H]5C[C@@H]5[C@]4(C)[C@H]3CC[C@@]21C [cyproterone acetate] | full agonist | 4.1 × 10^5 |  | cell yields compared with DHT alone, in words (LNCaP cells [1]): increased cell yields at values consistently above those obtained with DHT alone |
| C[C@]1(O)CC[C@H]2[C@@H]3CCC4=CC(=O)CCC4=C3C=C[C@@]21C [R1881, 17β-hydroxy-17α-methyl-estra-4,9,11-trien-3-one] | full agonists | 2.5 × 10^5 | no antagonistic activity |  |
| CC(C)C(=O)Nc1ccc([N+](=O)[O-])c(C(F)(F)F)c1 [flutamide] | quiescent | 5 × 10^4 |  | agonistic / proliferative activity, in words (LNCaP cells [1]): devoid of activity |
| C[C@]12CCC(=O)C[C@H]1CC[C@@H]1[C@@H]2CC[C@]2(C)[C@@H](O)CC[C@@H]12 [5β-DHT, 5β-dihydrotestosterone] | full agonist | 2.5 × 10^5 |  |  |
| C[C@]12CC[C@H]3[C@@H](CCC4=CC(=O)CC[C@@]43C)[C@@H]1CC[C@@H]2O [testosterone] | full agonist | 2.6 × 10^5 |  | agonistic / proliferative activity, in words (LNCaP cells [1]): proliferative pattern similar to that obtained with 5α-DHT |
| epidermal growth factor: Epidermal Growth Factor (Collaborative Research; Creative Biomolecules) (NSDSECPLSHDGYCLHDGVCMYIEALDKYACNCVVGYIGERCQYRDLKWWELR; Epidermal growth factor; UniProt P01133 971-1023, looked up) | quiescent |  |  | OPTIMAL TEST CONC. (Phase 1) (LNCaP cells [1]): 100 ng/mL; OPTIMAL TEST CONC. (Phase II) (LNCaP cells [2]; [4]): 100 ng/mL |
